From patent US20250090865A1, “LESIONAL DOSIMETRY FOR TARGETED RADIOTHERAPY OF CANCER” (Memorial Sloan-Kettering Cancer Center, priority 2021, published 2025)
Where two headings read alike, the source gives them in different places.

Assays:
[1] = system: individual lesions of metastatic thyroid cancer; test: ^124I PET/CT imaging of lesion radioiodine uptake; type: in vivo, human; details: 48 h after oral ^124I
Description: Population. The present study includes consecutive 21 patients studied under two different RB-approved protocols who underwent imaging. Patients who were considered candidates for RAI treatment of DTC were enrolled. All patients had histologically confirmed, metastatic thyroid cancer.
Dosimetry and estimation of average lesion uptake. […] (FIG. 9).

[2] = system: individual lesions of metastatic thyroid cancer
Protocol: Dosimetry and estimation of average lesion uptake. A workflow was established for four-time point measurement of individual lesion radioiodine kinetics to generate area under the curve (AUC) estimation for accurate determination of the radiation dose in Gray (Gy) to individual lesions in patients undergoing RAI therapy for DTC. Positron emission tomography (PET/CT) imaging was performed after oral administration of 222 MBq (6.0 mCi) of ^124I—NaI (3D Imaging, Waco, TX). Whole-body imaging was performed at 4, 24, 48, and 96 hours after oral administration of the radioactivity (FIG. 4). Regions of interest were obtained over all visible lesions >0.5 cm within the body and multiple parameters were obtained for later analysis. The following parameters were captured in a database for each patient and each lesion: size in three dimensions (cm); standardized uptake value (SUV), maximum and average; lean body weight; and activity concentration in microcurie/gram. (FIG. 9). For these patients, the best clearance fitting curve was estimated using a dual exponential equation model comprising lesion uptake and clearance. Prior to integration, clearance fitting was adjusted to replace the decay constant of ^124I with ^131I, the therapy isotope of interest, and then integrated to obtain the AUC. This AUC was multiplied by the equilibrium dose constant for the non-penetrating P-emissions of ^131I, yielding the lesion-absorbed dose in Gy.
Range of ^131I activity to treat a chosen efficacy rate for RAI in mDTC patients. A multi-disciplinary team of nuclear medicine specialists, endocrinologists, medical oncologists, and medical physicists met weekly to make treatment decisions based on the PET data generated, including data from the methods disclosed herein.
(§1) The target radiation dose of 2000 cGy was chosen because doses above this level are often used as the threshold for patients to receive further radioiodine treatment. Based on the PI now available for the AUC, a simple calculation of the relationship between ^124I and ^131I uptake can yield a PI for the dose [dlow−dhigh]. […] Thus, the higher boundary (dhigh) corresponds to the activity to treat 97.5% of the lesions with the given uptake. By varying this boundary, it is possible to select an activity that will target 95%, 90%, or fewer of the lesions.
The full parameter data set consists of: anatomical descriptor, mean size (cm), lesion dose per projected unit millicurie of administered ^131I activity with and without partial volume correction (5), half-life based on a linear slop between day 3 and 5 as well as based on exponential curve fitting, area under the curve based on an integrated curve fit, estimated activity per gram at 48 and 72 hours post-administration, SUV and SUL (based on lean body mass) at 24, 48, and 72 hours post-administration, the administered activity to deliver 2,000 cGy, the radiation dose estimate resulting from the actual therapeutic amount administered to the patient, and the maximum projected dose that could have been achieved had the maximum tolerated activity been administered. This dataset was used as the input to derive a statistical model to predict the radiation dose to lesions.

[3] = system: individual lesions of metastatic thyroid cancer; remark: listed apart in the source
Description: Predicting AUC based on a single time point. One goal of this study was to use a single time point to predict the overall area under the radioiodine lesion activity retention curve to estimate the radiation-absorbed dose to lesions without the need for costly additional PET/CT imaging to fully characterize the kinetic behavior. […] For this estimation, the unit is the lesion, and a generalized estimating equation approach is used to estimate the parameters (intercept, slope, and robust variance matrix) accounting for the correlation between lesions in the same patient. Log-transformed values of the uptake and doses are used to ensure the data are normally distributed.
Second, using the estimations for R and the covariance matrix, a prediction interval (PI) is calculated. A PI differs from a confidence interval, as it aims to predict with 95% confidence where future measurements will fall. In our case, if we observed the same value of SUV at 48 h for 100 new lesions, the PI is the range in which 95 of those lesions' AUCs will be found. As difficulties arose when analytically constructing the PI, simulated prediction was used to calculate PIs following the steps detailed in Gelman and Hill, Data Analysis Using Regression and Multilevel/Hierarchical Models (1st Edition, 2007) and summarized in Appendix A.
To validate the accuracy of the prediction, a leave-one-patient-out cross-validation approach was used. For each patient i (i=1, . . . , n), the linear regression parameters are re-estimated using n−1 patients (excluding i), and PIs are calculated for each lesion in patient i based on their measured predictor values.
For those lesions, the actual observed AUC is then compared to the PI. When using 95% PI, it is expected that 95% of the observed values will fall into the corresponding PIs; i.e., 5% will be outside the prediction. In addition, for each left-out patient, an error of prediction is calculated corresponding to the squared difference between the predicted and true AUC values for each lesion. This squared error is average over all the lesions of all the patients to obtain a cross-validated error.
as §1

[4] = system: metastatic thyroid cancer; details: patients with any lesion with predicted dose >2000 cGy
Description: Prediction of activity to deliver 2000 cGy. An operational definition in the methods disclosed herein is that a patient with any lesion with a predicted dose of >2000 cGy would likely respond to treatment. […] A total of 208 lesions are included in the analysis. The prediction is limited for lesions with an SUV >1, as no treatment is planned for lesions with no uptake. Lesions that received no treatment (n=39) were included in the analysis, as prediction is still feasible. […] In (SUV_48_)___.

[5] = median of 21 patients
Protocol: Maximum Tolerated Activity (MTA).
To perform these studies, serial blood samples and total body measurements were conducted to determine β- and photon radiation dose contributions to blood (a proxy for the dose-limiting bone marrow) from a pre-therapy tracer administration of either ^124I or ^131I.

## [124I-].[Na+] [^124I, ^124I—NaI]
[1]; patient 1, 13 lesions
  SUV(48 h): 8.03
[1]; patient 2, 18 lesions
  SUV(48 h): 80.1
[1]; patient 3, 14 lesions
  SUV(48 h): 3.25
[1]; patient 4, 12 lesions
  SUV(48 h): 7.4
[1]; patient 5, 10 lesions
  SUV(48 h): 1.85
[1]; patient 6, 16 lesions
  SUV(48 h): 27.8
[1]; patient 7, 23 lesions
  SUV(48 h): 35
[1]; patient 8, 6 lesions
  SUV(48 h): 1.73
[1]; patient 9, 8 lesions
  SUV(48 h): 4.35
[1]; patient 10, 4 lesions
  SUV(48 h): 26.2
[1]; patient 11, 11 lesions
  SUV(48 h): 11.30
[1]; patient 12, 3 lesions
  SUV(48 h): 0.7
[1]; patient 13, 13 lesions
  SUV(48 h): 1.30
[1]; patient 14, 5 lesions
  SUV(48 h): 0.90
[1]; patient 15, 17 lesions
  SUV(48 h): 385.3
[1]; patient 16, 6 lesions
  SUV(48 h): 8.30
[1]; patient 17, 6 lesions
  SUV(48 h): 0.80
[1]; patient 18, 12 lesions
  SUV(48 h): 25.1
[1]; patient 19, 17 lesions
  SUV(48 h): 204.6
[1]; patient 20, 13 lesions
  SUV(48 h): 2.30
[1]; patient 21, 10 lesions
  SUV(48 h): 10.8

## [131I-].[Na+] [^131I, Iodine-131]
[2]; patient 1, 13 lesions
  Teff: 8.02 days
[2]; patient 2, 18 lesions
  Teff: 4.28 days
[2]; patient 3, 14 lesions
  Teff: 0.45 days
[2]; patient 4, 12 lesions
  Teff: 3.16 days
[2]; patient 5, 10 lesions
  Teff: 1.48 days
[2]; patient 6, 16 lesions
  Teff: 1.59 days
[2]; patient 7, 23 lesions
  Teff: 2.48 days
[2]; patient 8, 6 lesions
  Teff: 4.41 days
[2]; patient 9, 8 lesions
  Teff: 3.03 days
[2]; patient 10, 4 lesions
  Teff: 1.26 days
[2]; patient 11, 11 lesions
  Teff: 2.98 days
[2]; patient 12, 3 lesions
  Teff: 3.8 days
[2]; patient 13, 13 lesions
  Teff: 1.55 days
[2]; patient 14, 5 lesions
  Teff: 1.74 days
[2]; patient 15, 17 lesions
  Teff: 3.79 days
[2]; patient 16, 6 lesions
  Teff: 4.77 days
[2]; patient 17, 6 lesions
  Teff: 8.04 days
[2]; patient 18, 12 lesions
  Teff: 1.69 days
[2]; patient 19, 17 lesions
  Teff: 1.55 days
[2]; patient 20, 13 lesions
  Teff: 1.74 days
[2]; patient 21, 10 lesions
  Teff: 4.63 days
[3]; SUV at 48 h 2
  AUC 95% PI: 1.5-9.1 uCi · hr/g per mCi
  AUC Mean Estimate: 4.0 uCi · hr/g per mCi
[3]; SUV at 48 h 4
  AUC 95% PI: 3.3-20.3 uCi · hr/g per mCi
  AUC Mean Estimate: 8.1 uCi · hr/g per mCi
[3]; SUV at 48 h 6
  AUC 95% PI: 4.8-29.2 uCi · hr/g per mCi
  AUC Mean Estimate: 12.1 uCi · hr/g per mCi
[3]; SUV at 48 h 8
  AUC 95% PI: 6.4-38.8 uCi · hr/g per mCi
  AUC Mean Estimate: 16.1 uCi · hr/g per mCi
[3]; SUV at 48 h 10
  AUC 95% PI: 8.6-48.4 uCi · hr/g per mCi
  AUC Mean Estimate: 20.2 uCi · hr/g per mCi
[3]; SUV at 48 h 15
  AUC 95% PI: 11.9-71.0 uCi · hr/g per mCi
  AUC Mean Estimate: 30.3 uCi · hr/g per mCi
[3]; SUV at 48 h 20
  AUC 95% PI: 16.1-97.1 uCi · hr/g per mCi
  AUC Mean Estimate: 40.4 uCi · hr/g per mCi
[3]; SUV at 48 h 30
  AUC 95% PI: 24.3-147.4 uCi · hr/g per mCi
  AUC Mean Estimate: 60.6 uCi · hr/g per mCi
[3]; SUV at 48 h 50
  AUC 95% PI: 40.8-252.9 uCi · hr/g per mCi
  AUC Mean Estimate: 101.2 uCi · hr/g per mCi
[3]; SUV at 48 h 100
  AUC 95% PI: 82.3-479.6 uCi · hr/g per mCi
  AUC Mean Estimate: 202.6 uCi · hr/g per mCi
[3]; SUV at 48 h 200
  AUC 95% PI: 164.2-951.2 uCi · hr/g per mCi
  AUC Mean Estimate: 405.8 uCi · hr/g per mCi
[3]; SUV at 48 h 300
  AUC 95% PI: 257.8-1476.2 uCi · hr/g per mCi
  AUC Mean Estimate: 609.2 uCi · hr/g per mCi
[4]
  probability of complete reduction: 100%
  probability of durable partial RECIST response: 75%
[5]
  Maximum Tolerated Activity (mCi): 426 mCi
